The values below come from patent US9840481B2, “Allosteric modulators of nicotinic acetylcholine receptors” (MERCK SHARP & DOHME CORP., priority 2016, dated 2017).

The structures appear in SMILES notation. Read-outs that look alike come from different tables or passages of the source.

This assay deals with T1, human α7 nAChR stably expressed in a HEK cell line (with human RIC-3) (Homo sapiens, UniProt P36544).
T1 construct: PrecisION hnAChR α7/RIC-3
Put plainly: Automated patch-clamp electrophysiology functional assay (Assay A), IonFlux HT, whole-cell population patch. The assay is classed as cell-based. The method in brief:
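Whole-cell population patch clamp (IonFlux HT) used HEK cells stably co-expressing human α7 and RIC-3, held at −60 mV at room temperature. Compounds were applied alone (agonism) or with 40 μM acetylcholine (potentiation), three ascending concentrations per recording. Currents were quantified relative to a 40 μM acetylcholine reference response, giving EC50.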

Where [1] appears, read: automated patch-clamp electrophysiology functional assay (Assay A), potency class by EC50, read-out: α7 nAChR Potency.
Where [2] appears, read: electrophysiology EC50, HEK cells expressing human α7/RIC-3, 40 μM acetylcholine, holding potential −60 mV, room temperature, read-out: α7 nAChR EC50.

T1 sequence (P36544 23-502): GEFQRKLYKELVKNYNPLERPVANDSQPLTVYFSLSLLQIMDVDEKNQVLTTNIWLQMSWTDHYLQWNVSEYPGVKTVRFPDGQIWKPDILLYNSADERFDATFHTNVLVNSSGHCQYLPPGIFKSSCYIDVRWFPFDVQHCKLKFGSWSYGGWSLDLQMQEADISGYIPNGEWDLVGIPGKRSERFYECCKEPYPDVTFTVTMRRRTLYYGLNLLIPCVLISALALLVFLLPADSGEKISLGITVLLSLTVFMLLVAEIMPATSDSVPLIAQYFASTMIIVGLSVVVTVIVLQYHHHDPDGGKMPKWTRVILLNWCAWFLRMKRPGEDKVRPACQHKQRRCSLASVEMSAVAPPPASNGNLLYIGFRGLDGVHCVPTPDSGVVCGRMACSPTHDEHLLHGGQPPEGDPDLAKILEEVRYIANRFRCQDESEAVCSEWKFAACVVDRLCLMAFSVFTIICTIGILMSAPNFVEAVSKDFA

For the compound `CC1(C)[C@@H](c2ccc(S(N)(=O)=O)cc2)[C@@H]1c1noc(-c2ccncc2C(F)(F)F)n1` [Example I19], under setting [1], the EC50 lay within 100 to 500 nM.

As for `NS(=O)(=O)c1ccc([C@H]2C[C@@H]2c2cnc(-c3ccccc3)o2)cc1` [Example L2], the EC50 under setting [1] was 500 to 5000 nM and the EC50 under setting [2] is 4800 nM.

As for `CC1(C)[C@H](c2ccc(S(N)(=O)=O)cc2)[C@H]1c1nc(-c2cc(F)ccc2F)co1` [Example J3], the EC50 under setting [1] fell in the range of 500 to 5000 nM.

As to `NS(=O)(=O)c1ccc([C@H]2C[C@@H]2c2nc(C3CCCCC3)no2)cc1` [Example B4], the EC50 under setting [1] lay within 500 to 5000 nM.

`CC1(C)[C@H](c2ccc(S(N)(=O)=O)cc2)[C@H]1c1cnn(C2CCCC2)c1` [Example L8]: the EC50 under setting [1] is 500 to 5000 nM.

For `CC1(C)[C@@H](c2ccc(S(N)(=O)=O)cc2)[C@@H]1c1noc(-c2c(F)ccc(F)c2F)n1` [Example 3, 4-((1S,3S)-2,2-Dimethyl-3-(5-(2,3,6-trifluorophenyl)-1,2,4-oxadiazol-3-yl)cyclopropyl) benzenesulfonamide], the EC50 under setting [1] was at most 100 nM and the EC50 under setting [2] amounted to 83 nM.

As for `NS(=O)(=O)c1ccc([C@@H]2C[C@H]2c2nsc(-c3cccc(F)c3)n2)cc1` [Example L10], the EC50 runs as follows: under setting [1], at most 100 nM; under setting [2], 88 nM.

`NS(=O)(=O)c1ccc([C@@H]2C[C@H]2c2nc(C3CCCCC3)no2)cc1` [Example D8]: the EC50 runs as follows: under setting [1], 100 to 500 nM; under setting [2], 190 nM.

For the compound `Cc1ncccc1-c1noc([C@H]2[C@H](c3ccc(S(N)(=O)=O)cc3)C2(C)C)n1` [Example D15], under setting [1], the EC50 lay within 500 to 5000 nM.

On to `CC1(C)[C@@H](c2ccc(S(N)(=O)=O)cc2)[C@@H]1c1noc(C2CCN(C3CC3)CC2)n1` [Example I9], for which the EC50 under setting [1] was in the range of 500 to 5000 nM and the EC50 under setting [2] was 1800 nM.

With `CC1(C)[C@@H](c2ccc(S(N)(=O)=O)cc2)[C@@H]1c1nc(-c2ccc(F)cc2F)co1` [Example K3], the EC50 reads like this: under setting [1], 100 to 500 nM; under setting [2], 380 nM.

As for `NS(=O)(=O)c1ccc([C@@H]2C[C@H]2c2nc(-c3ccc(F)cc3)no2)cc1` [Example C14], the EC50 reads like this: under setting [1], at most 100 nM; under setting [2], 93 nM.

`NS(=O)(=O)c1ccc([C@@H]2C[C@H]2c2nc(C3CCCC3)no2)cc1` [Example D21]: the EC50 under setting [1] fell in the range of 100 to 500 nM and the EC50 under setting [2] was determined as 130 nM.

On to `NS(=O)(=O)c1ccc([C@@H]2[C@@H](c3nsc(N4CCCCC4)n3)C2(F)F)cc1` [Example L12], for which, under setting [1], the EC50 fell in the range of 100 to 500 nM.

Take `NS(=O)(=O)c1ccc(C2C(c3ncc(-c4ccccc4)o3)C2(F)F)cc1` (racemic) [Example M1]: the EC50 under setting [1] lay in the range of 500 to 5000 nM.

Regarding `NS(=O)(=O)c1ccc([C@@H]2C[C@H]2c2nc(-c3ccccc3)cs2)cc1` [Example K9], the EC50 under setting [1] lay within 500 to 5000 nM and the EC50 under setting [2] was 670 nM.

For the compound `CC1(C)[C@@H](c2ccc(S(N)(=O)=O)cc2)[C@@H]1c1nnc(CC2CC2)o1` [Example G11], the EC50 by setting is: under setting [1], 500 to 5000 nM; under setting [2], 4500 nM.

For `NS(=O)(=O)c1ccc([C@@H]2C[C@H]2c2nc(-c3cccc(F)c3)no2)cc1` [Example 4, 4-((1R,2R)-2-(3-(3-Fluorophenyl)-1,2,4-oxadiazol-5-yl)cyclopropyl)benzenesulfonamide], the EC50 runs as follows: under setting [1], 100 to 500 nM; under setting [2], 230 nM.

On to `CC1(C)[C@@H](c2ccc(S(N)(=O)=O)cc2)[C@@H]1c1nc(-c2cncc(F)c2)no1` [Example D6], for which the EC50 was 500 to 5000 nM under setting [1] and 820 nM under setting [2].

Take `NS(=O)(=O)c1ccc([C@@H]2C[C@H]2c2nc(C3CCCC3)co2)cc1` [Example K18]: the EC50 under setting [1] lay in the range of 100 to 500 nM.

As for `CC1C(c2ccc(S(N)(=O)=O)cc2)C1c1nc(-c2ccccc2)no1` (single isomer, unassigned; diastereomer 4) [Example 22, 4-(2-Methyl-3-(3-phenyl-1,2,4-oxadiazol-5-yl)cyclopropyl)benzenesulfonamide, diastereomer 4], the EC50 is, setting by setting: under setting [1], 100 to 500 nM; under setting [2], 120 nM.

Regarding `CC1(C)[C@H](c2ccc(S(N)(=O)=O)cc2)[C@H]1c1ncc(C2CCCC2)s1` [Example J9], the EC50 under setting [1] fell in the range of 500 to 5000 nM.

In the case of `CC1(C)[C@@H](c2ccc(S(N)(=O)=O)cc2)[C@@H]1c1nnc(-c2ccc(F)cc2F)o1` [Example 6, 4-{(1S,3S)-3-[5-(2,4-Difluorophenyl)-1,3,4-oxadiazol-2-yl]-2,2-dimethylcyclopropyl}benzenesulfonamide], the EC50 is, setting by setting: under setting [1], 500 to 5000 nM; under setting [2], 1100 nM.
